Results published in patent US11814364B2, “Pyridine N-oxide derivatives useful as factor XIa inhibitors” (Janssen Pharmaceutica NV, priority 2021, dated 2023).
Like-named read-outs stand apart in the source and are kept apart here. *1 amine or outer side, *2 acyl side, *3 side chain or, on linkers, in order; H or OH if unused. The star is where a group is joined. Lys(5-TAMRA) = CN(C)c1ccc2c(-c3ccc(C(=O)NCCCC[C@H](N[*:1])C(=O)[*:2])cc3C(=O)[O-])c3ccc(N(C)C)cc3[o+]c2c1; 5FAM = O=C1OC2(c3ccc(O)cc3Oc3cc(O)ccc32)c2ccc(C(=O)*)cc21

Assays:
Format in all cases: biochemical
[1] = target: T1, Factor XIa (Homo sapiens, UniProt P03951); assay: Factor XIa inhibition FLINT assay with fluorophore-quencher peptide substrate 5Fam-[…]-K5Tamra (end point EP or kinetic KIN reads); settings: fit to a substrate inhibition model
T1 sequence (P03951 388-625 limits assumed): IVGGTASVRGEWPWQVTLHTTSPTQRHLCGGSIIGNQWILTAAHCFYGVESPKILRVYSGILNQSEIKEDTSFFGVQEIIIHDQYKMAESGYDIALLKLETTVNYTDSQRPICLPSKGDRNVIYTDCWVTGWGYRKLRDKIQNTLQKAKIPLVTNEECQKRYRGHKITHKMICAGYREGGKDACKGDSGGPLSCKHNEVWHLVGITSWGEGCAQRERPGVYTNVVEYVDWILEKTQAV
T1 sequence (P03951 19-387 partner limits assumed): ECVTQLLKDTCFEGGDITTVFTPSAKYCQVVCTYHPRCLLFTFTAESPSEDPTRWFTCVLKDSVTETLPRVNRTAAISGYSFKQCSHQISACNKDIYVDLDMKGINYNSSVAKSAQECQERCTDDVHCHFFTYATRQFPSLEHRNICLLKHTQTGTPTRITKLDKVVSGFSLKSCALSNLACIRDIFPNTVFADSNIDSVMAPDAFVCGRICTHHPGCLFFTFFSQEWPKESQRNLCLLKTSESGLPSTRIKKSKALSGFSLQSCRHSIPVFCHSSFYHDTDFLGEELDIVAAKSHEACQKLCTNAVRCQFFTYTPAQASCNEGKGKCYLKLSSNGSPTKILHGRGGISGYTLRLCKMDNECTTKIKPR

[2] = target: human plasma kallikrein (Homo sapiens, UniProt P03952); assay: Kallikrein inhibition FLINT assay with quenched AMC peptide substrate Z-Gly-Pro-Arg-AMC (end point EP or kinetic KIN reads)
human plasma kallikrein, sequence (P03952 391-638 limits assumed): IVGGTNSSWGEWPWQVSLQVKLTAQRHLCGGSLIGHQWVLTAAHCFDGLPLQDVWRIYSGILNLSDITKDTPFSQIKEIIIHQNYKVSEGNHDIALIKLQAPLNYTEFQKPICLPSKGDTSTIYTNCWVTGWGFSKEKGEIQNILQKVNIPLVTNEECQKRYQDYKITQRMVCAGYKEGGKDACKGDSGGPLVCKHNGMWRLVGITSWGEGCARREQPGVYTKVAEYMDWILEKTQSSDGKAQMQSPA
human plasma kallikrein, sequence (P03952 20-390 partner limits assumed): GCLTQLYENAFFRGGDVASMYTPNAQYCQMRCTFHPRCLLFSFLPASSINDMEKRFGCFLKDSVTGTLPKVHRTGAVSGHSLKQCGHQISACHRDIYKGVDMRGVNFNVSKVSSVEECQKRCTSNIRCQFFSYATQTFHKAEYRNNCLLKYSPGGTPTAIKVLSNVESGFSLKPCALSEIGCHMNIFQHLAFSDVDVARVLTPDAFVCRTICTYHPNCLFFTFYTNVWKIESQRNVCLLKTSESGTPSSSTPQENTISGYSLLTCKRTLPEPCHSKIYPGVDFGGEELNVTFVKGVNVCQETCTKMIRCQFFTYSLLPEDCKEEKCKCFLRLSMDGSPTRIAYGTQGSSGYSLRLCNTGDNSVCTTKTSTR
Method in brief: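 Enzyme and compound were preincubated 30 min before adding 50 μM AMC substrate in pH 7.5 Tris/NaCl/CaCl2/BSA/CHAPS buffer. AMC release was read at 30 min endpoint or every 5 min.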

[3] = target: T1, Factor XIa; assay: Factor XIa inhibition FLINT assay with fluorophore-quencher peptide substrate 5Fam-[…]-K5Tamra (end point EP or kinetic KIN reads); settings: end point read at 30 min; read-out: FXIa (EP) IC50
Description: Factor XIa inhibition assay utilizing a fluorophore-quencher pair peptide substrate A fluorescence intensity (FLINT) based assay was used to monitor inhibition of Factor XIa. The peptide substrate, 5Fam-[…]-K5Tamra (purchased from New England Peptide) was chosen based on the FXI sequence. Conversion of zymogen FXI to its activated form, FXIa, occurs by proteolytic cleavage by […] at two sites, Arg146 and Arg180. The custom peptide used in this assay was based on the Arg146 cleavage site of FXI. The peptide substrate was designed with a fluorophore-quencher pair, where the fluorescence is quenched until FXIa cleaves the 8-mer peptide after the Arg residue.
Test compound(s) were run in an 11-point, 3-fold serial dilution with a final top compound concentration of 100 nM. Final DMSO in assay was 2%. FXIa was preincubated with compound for 30-minutes and then substrate was added to initiate the reaction. The assay was run with either end point (EP) reads at 30 min or kinetic (KIN) reads at 5 min intervals over 30 minutes. […] More specifically, the assay was run as follows: • 100 nL of 0.01 mM test compound was dispensed into black 384-well non-binding Greiner BioOne 784900 plate for 0.1 μM final concentration; • 5 μL of 1× assay buffer was dispensed to column 24 (low control) and 5 μL 2× Factor XIa solution was dispensed to columns 1-23 (column 23 high control); • the plate was centrifuged with a “cover” plate at 500 rpm for 1 min • the plate was pre-incubated for 30 minutes at room temperature with plate covered; • 5 μL of 2×5Fam-[…]-K5Tamra peptide substrate was dispensed into the entire plate, columns 1-24; • the plate was centrifuged with a “cover” plate at 500 rpm for 1 min; • the plate was read monitoring fluorescence intensity on the BMG PHERAStar at room temperature, using fluorescence module 485 nm/520 nm.
Percent inhibition (IC50) curves were generated per compound tested, and data was analyzed using a 4-parameter logistic fit using GeneData Screener. The relative fluorescence unit (RFU) values were normalized to percent inhibition using the following equation: % inhibition=((HC−LC)−(compound−LC)/(HC−LC))*100
An 11-point dose response curve for the test compound(s) was generated using GENDATA to determine IC50 value based on the following equation: Y=Bottom+(Top−Bottom)/(1+10^((log IC50−X)*HillSlope))
Results listed in columns with […] designation were measured using endpoint reads where a single fluorescence reading was measured for each well at a 30 min timepoint.

[4] = end point read at 30 min, read-out: Kallikrein (EP) IC50

| Compound | Km ([1]; peptide substrate of FXIa) [µM] | kcat ([1]; peptide substrate of FXIa) [s⁻¹] | Ki ([1]; substrate inhibition constant) [nM] | IC50 [2, 4] [nM] | IC50 [3] [nM] | IC50 ([2]; kinetic reads at 5 min intervals over 30 min, read-out: Kallikrein (KIN) IC50) [nM] |
| --- | --- | --- | --- | --- | --- | --- |
| 5Fam-KLTRAETV-K5Tamra (5FAM-KLTRAETV-{Lys(5-TAMRA)}; SMILES CC(C)C[C@H](NC(=O)[C@H](CCCCN)NC(=O)c1ccc2c(c1)C(=O)OC21c2ccc(O)cc2Oc2cc(O)ccc21)C(=O)N[C@H](C(=O)N[C@@H](CCCNC(=N)N)C(=O)N[C@@H](C)C(=O)N[C@@H](CCC(=O)O)C(=O)N[C@H](C(=O)N[C@H](C(=O)N[C@@H](CCCCNC(=O)c1ccc(-c2c3ccc(N(C)C)cc3[o+]c3cc(N(C)C)ccc23)c(C(=O)[O-])c1)C(=O)O)C(C)C)[C@@H](C)O)[C@@H](C)O) ["The peptide substrate ; (purchased from New England Peptide)", "designed with a fluorophore-quencher pair", based on the Arg146 cleavage site of FXI] | 12.4 | 0.86 | 61600 |  |  |  |
| CC(N)c1ccc(-c2cnn(C(Cc3ccccc3)c3ccc(-c4cc(Cl)ccc4-n4cnnn4)c[n+]3[O-])c2)cc1 (stereo not shown) [Example P47] |  |  |  | 405 | 22.2 |  |
| COC(=O)Nc1ccc(-c2cnn(C(CC3CC3)c3ccc(-c4cc(Cl)ccc4-n4cc(Cl)nn4)c[n+]3[O-])c2)cc1 (stereo not shown) [Example P14] |  |  |  | 966 | 94.4 |  |
| COC(=O)Nc1ccc(-c2cnn(C(CC3CC3)c3c(F)cc(-c4c(-n5cnnn5)ccc(Cl)c4F)c[n+]3[O-])c2)cc1 (stereo not shown) [Example P30] |  |  |  | 57.3 | 3.3 |  |
| O=C(O)c1ccc(-c2cnn(C(CC3CC3)c3ccc(-c4cc(Cl)ccc4-n4cc(Cl)nn4)c[n+]3[O-])c2)cc1 (stereo not shown) [Example P4] |  |  |  | 517 | 9.9 |  |
| O=C(O)c1ccc(-c2cnn(C(CC3CC3)c3ccc(-c4cc(Cl)ccc4-n4cnnn4)c[n+]3[O-])c2)cc1 (stereo not shown) [Example P1] |  |  |  | 124 | 2.6 | 157 |
| O=C(O)c1cccc(-c2cnn(C(CC3CC3)c3c(F)cc(-c4cc(Cl)ccc4-n4cnnn4)c[n+]3[O-])c2)c1 (stereo not shown) [Example P11] |  |  |  | 81.4 | 6.9 |  |
